Experiments:
EPHB2 = EPHB2 (Homo sapiens, UniProt P29323); experiment: biochemical; conditions: read-out: %Ctrl @ 1000nM
[1] = molecular target: ABL1(F317L)-phosphorylated (Homo sapiens, UniProt P00519, F317L); experiment: biochemical; conditions: read-out: %Ctrl @ 1000nM
EIF2AK1 = EIF2AK1 (Homo sapiens, UniProt Q9BQI3); experiment: biochemical; conditions: read-out: %Ctrl @ 1000nM
EGFR(E746-A750del) = EGFR(E746-A750del) (Homo sapiens, UniProt P00533, DEL746-750); experiment: biochemical; conditions: read-out: %Ctrl @ 1000nM
ANKK1 = ANKK1 (Homo sapiens, UniProt Q8NFD2); experiment: biochemical; conditions: read-out: %Ctrl @ 1000nM
ROCK2 = ROCK2 (Homo sapiens, UniProt O75116); experiment: biochemical; conditions: read-out: %Ctrl @ 1000nM
MAP4K3 = MAP4K3 (Homo sapiens, UniProt Q8IVH8); experiment: biochemical; conditions: read-out: %Ctrl @ 1000nM
PKN2 = PKN2 (Homo sapiens, UniProt Q16513); experiment: biochemical; conditions: read-out: %Ctrl @ 1000nM
PRKCD = PRKCD (Homo sapiens, UniProt Q05655); experiment: biochemical; conditions: read-out: %Ctrl @ 1000nM
MET(M1250T) = MET(M1250T) (Homo sapiens, UniProt P08581, M1250T); experiment: biochemical; conditions: read-out: %Ctrl @ 1000nM
[2] = molecular target: ABL1(F317I)-nonphosphorylated (Homo sapiens, UniProt P00519, F317I); experiment: biochemical; conditions: read-out: %Ctrl @ 1000nM
TESK1 = TESK1 (Homo sapiens, UniProt Q15569); experiment: biochemical; conditions: read-out: %Ctrl @ 1000nM
IKK-beta = molecular target: T1, IKK-beta (Homo sapiens, UniProt O14920); experiment: biochemical; conditions: read-out: %Ctrl @ 1000nM
T1 construct: gene IKBKB

PIM2 = PIM2 (Homo sapiens, UniProt Q9P1W9); experiment: biochemical; conditions: read-out: %Ctrl @ 1000nM
S6K1 = molecular target: T2, S6K1 (Homo sapiens, UniProt P23443); experiment: biochemical; conditions: read-out: %Ctrl @ 1000nM
T2 construct: gene RPS6KB1

PAK2 = PAK2 (Homo sapiens, UniProt Q13177); experiment: biochemical; conditions: read-out: %Ctrl @ 1000nM
CLK3 = CLK3 (Homo sapiens, UniProt P49761); experiment: biochemical; conditions: read-out: %Ctrl @ 1000nM
FLT3(D835V) = FLT3(D835V) (Homo sapiens, UniProt P36888, D835V); experiment: biochemical; conditions: read-out: %Ctrl @ 1000nM
SRPK3 = SRPK3 (Homo sapiens, UniProt Q9UPE1); experiment: biochemical; conditions: read-out: %Ctrl @ 1000nM
FLT3(ITD,F691L) = FLT3(ITD,F691L) (Homo sapiens, UniProt P36888, F691L/ITD); experiment: biochemical; conditions: read-out: %Ctrl @ 1000nM
EPHA4 = EPHA4 (Homo sapiens, UniProt P54764); experiment: biochemical; conditions: read-out: %Ctrl @ 1000nM
DCAMKL3 = molecular target: T3, DCAMKL3 (Homo sapiens, UniProt Q9C098); experiment: biochemical; conditions: read-out: %Ctrl @ 1000nM
T3 construct: gene DCLK3

PDPK1 = PDPK1 (Homo sapiens, UniProt O15530); experiment: biochemical; conditions: read-out: %Ctrl @ 1000nM
FYN = FYN (Homo sapiens, UniProt P06241); experiment: biochemical; conditions: read-out: %Ctrl @ 1000nM
PAK6 = PAK6 (Homo sapiens, UniProt Q9NQU5); experiment: biochemical; conditions: read-out: %Ctrl @ 1000nM
MARK1 = MARK1 (Homo sapiens, UniProt Q9P0L2); experiment: biochemical; conditions: read-out: %Ctrl @ 1000nM
EGFR(S752-I759del) = EGFR(S752-I759del) (Homo sapiens, UniProt P00533, DEL752-759); experiment: biochemical; conditions: read-out: %Ctrl @ 1000nM
MEK5 = molecular target: T4, MEK5 (Homo sapiens, UniProt Q13163); experiment: biochemical; conditions: read-out: %Ctrl @ 1000nM
T4 construct: gene MAP2K5

ERK3 = molecular target: T5, ERK3 (Homo sapiens, UniProt Q16659); experiment: biochemical; conditions: read-out: %Ctrl @ 1000nM
T5 construct: gene MAPK6

CDC2L5 = molecular target: T6, CDC2L5 (Homo sapiens, UniProt Q14004); experiment: biochemical; conditions: read-out: %Ctrl @ 1000nM
T6 construct: gene CDK13

CSNK1E = CSNK1E (Homo sapiens, UniProt P49674); experiment: biochemical; conditions: read-out: %Ctrl @ 1000nM
FLT3(D835H) = FLT3(D835H) (Homo sapiens, UniProt P36888, D835H); experiment: biochemical; conditions: read-out: %Ctrl @ 1000nM
PFPK5(P.falciparum) = molecular target: T7, PFPK5(P.falciparum) (Plasmodium falciparum, UniProt P61075); experiment: biochemical; conditions: competition binding; read-out: %Ctrl @ 1000nM
T7 construct: gene CRK2

[3] = Pharmacokinetics study in SD rats; type: in vivo; conditions: male, Sprague-Dawley, rat, whole blood, iv, 4 mg/kg, read-out: CL (L/hr/kg) in rats (converted)

Sequence of EGFR(S752-I759del) (P00533 with tags, fused parts or gaps DEL752-759): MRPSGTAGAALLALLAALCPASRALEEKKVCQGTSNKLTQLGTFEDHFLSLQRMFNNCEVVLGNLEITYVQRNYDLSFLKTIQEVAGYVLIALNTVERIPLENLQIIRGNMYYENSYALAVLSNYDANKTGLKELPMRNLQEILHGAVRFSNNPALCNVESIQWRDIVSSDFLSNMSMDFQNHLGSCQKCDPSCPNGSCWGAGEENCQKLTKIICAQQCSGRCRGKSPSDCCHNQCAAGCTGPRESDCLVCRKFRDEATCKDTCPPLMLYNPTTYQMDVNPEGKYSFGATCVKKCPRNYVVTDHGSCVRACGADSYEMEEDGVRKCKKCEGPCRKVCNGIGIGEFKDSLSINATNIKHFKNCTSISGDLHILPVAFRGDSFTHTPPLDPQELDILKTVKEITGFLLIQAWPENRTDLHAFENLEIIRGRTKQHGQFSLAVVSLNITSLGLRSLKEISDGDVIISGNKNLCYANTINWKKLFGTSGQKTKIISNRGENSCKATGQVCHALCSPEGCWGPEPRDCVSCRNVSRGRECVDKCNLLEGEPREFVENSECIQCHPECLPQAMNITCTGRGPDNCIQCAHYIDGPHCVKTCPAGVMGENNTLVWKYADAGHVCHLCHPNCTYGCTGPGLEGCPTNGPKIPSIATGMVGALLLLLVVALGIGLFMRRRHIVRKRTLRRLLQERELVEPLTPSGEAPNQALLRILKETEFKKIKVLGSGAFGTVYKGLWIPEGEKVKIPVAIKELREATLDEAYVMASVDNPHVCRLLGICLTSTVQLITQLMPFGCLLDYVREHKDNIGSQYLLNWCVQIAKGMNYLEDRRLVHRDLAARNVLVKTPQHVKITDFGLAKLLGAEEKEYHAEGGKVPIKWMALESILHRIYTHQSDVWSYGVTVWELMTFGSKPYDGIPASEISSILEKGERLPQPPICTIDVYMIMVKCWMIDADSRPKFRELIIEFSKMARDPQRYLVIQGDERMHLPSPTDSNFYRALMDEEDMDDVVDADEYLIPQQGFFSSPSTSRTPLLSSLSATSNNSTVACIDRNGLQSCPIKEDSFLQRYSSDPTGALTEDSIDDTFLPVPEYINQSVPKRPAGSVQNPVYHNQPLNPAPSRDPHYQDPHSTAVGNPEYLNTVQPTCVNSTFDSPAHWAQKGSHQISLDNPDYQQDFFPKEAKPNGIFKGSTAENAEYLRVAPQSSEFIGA
T4 sequence (Q13163 whole entry): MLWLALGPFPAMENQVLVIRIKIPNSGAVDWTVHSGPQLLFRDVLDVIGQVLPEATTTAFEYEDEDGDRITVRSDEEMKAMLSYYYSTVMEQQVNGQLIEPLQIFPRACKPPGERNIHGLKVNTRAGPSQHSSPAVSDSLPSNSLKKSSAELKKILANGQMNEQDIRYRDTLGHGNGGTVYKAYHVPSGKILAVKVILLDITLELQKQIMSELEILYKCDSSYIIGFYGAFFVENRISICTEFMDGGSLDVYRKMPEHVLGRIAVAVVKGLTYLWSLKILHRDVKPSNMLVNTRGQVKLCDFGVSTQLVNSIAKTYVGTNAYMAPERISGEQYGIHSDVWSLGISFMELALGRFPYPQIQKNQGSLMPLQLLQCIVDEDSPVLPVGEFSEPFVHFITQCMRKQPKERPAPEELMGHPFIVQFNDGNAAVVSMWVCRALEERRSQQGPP
Sequence of EIF2AK1 (Q9BQI3 whole entry): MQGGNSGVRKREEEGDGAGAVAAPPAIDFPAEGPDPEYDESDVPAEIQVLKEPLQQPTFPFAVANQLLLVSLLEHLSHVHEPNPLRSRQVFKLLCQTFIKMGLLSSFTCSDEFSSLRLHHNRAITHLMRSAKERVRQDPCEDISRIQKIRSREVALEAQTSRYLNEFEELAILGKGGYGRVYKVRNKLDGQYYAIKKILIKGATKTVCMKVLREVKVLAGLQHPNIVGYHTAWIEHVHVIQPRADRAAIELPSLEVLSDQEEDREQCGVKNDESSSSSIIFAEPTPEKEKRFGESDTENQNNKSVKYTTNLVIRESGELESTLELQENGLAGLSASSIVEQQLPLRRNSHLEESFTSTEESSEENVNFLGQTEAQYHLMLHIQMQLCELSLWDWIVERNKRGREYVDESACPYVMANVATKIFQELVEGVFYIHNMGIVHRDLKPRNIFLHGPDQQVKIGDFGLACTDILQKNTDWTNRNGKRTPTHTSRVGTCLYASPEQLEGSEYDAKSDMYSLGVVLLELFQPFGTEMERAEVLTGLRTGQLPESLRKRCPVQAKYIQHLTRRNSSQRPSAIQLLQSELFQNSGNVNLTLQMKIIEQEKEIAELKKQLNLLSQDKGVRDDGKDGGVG
Sequence of ANKK1 (Q8NFD2 whole entry): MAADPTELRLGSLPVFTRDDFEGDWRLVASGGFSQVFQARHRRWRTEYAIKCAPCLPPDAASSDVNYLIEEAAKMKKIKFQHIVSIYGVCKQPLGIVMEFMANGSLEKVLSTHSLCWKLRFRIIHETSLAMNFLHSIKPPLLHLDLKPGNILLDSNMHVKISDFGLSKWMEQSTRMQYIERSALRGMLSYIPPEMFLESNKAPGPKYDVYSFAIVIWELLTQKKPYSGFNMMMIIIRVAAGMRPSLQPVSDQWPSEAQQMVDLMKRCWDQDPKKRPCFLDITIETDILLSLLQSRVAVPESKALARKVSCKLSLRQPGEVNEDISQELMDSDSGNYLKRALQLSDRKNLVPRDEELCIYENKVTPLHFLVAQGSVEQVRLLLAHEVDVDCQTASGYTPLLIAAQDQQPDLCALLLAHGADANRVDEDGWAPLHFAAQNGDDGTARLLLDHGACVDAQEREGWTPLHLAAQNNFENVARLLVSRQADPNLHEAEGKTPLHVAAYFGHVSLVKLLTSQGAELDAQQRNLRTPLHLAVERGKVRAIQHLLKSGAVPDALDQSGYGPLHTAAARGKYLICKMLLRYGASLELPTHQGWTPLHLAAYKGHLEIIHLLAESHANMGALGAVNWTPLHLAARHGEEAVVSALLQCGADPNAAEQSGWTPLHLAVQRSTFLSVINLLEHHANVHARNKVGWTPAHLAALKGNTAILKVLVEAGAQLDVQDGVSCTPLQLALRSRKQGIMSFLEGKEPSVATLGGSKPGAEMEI
Sequence of ABL1(F317I)-nonphosphorylated (P00519 whole entry F317I): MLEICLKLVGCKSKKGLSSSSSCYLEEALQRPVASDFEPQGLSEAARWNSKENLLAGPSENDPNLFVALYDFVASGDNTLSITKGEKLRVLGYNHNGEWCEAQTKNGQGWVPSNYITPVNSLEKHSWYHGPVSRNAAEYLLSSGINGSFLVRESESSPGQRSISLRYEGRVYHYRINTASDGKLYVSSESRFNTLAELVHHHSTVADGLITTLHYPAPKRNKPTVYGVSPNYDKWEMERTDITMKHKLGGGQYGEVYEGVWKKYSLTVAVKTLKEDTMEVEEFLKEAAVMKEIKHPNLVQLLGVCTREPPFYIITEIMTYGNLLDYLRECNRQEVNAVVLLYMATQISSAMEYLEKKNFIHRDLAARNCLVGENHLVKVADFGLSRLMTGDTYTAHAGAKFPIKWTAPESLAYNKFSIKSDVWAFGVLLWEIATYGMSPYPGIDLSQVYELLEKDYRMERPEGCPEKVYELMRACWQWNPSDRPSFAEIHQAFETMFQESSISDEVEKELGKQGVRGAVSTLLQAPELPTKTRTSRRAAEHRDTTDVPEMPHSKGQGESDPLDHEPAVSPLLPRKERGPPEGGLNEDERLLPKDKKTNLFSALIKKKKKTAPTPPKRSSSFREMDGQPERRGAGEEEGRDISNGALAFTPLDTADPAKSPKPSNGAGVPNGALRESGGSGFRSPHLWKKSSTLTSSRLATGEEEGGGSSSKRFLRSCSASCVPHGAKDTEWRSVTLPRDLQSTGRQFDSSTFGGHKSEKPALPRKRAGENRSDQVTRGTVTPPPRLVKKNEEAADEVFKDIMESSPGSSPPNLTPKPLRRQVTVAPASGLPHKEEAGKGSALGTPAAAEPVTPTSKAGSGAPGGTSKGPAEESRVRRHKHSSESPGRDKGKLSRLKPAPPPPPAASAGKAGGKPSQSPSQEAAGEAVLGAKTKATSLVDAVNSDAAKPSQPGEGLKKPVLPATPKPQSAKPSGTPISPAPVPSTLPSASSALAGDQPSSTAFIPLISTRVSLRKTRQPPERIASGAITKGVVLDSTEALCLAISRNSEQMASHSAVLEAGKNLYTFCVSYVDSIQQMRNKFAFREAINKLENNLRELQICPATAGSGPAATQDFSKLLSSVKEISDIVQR
Sequence of PRKCD (Q05655 whole entry): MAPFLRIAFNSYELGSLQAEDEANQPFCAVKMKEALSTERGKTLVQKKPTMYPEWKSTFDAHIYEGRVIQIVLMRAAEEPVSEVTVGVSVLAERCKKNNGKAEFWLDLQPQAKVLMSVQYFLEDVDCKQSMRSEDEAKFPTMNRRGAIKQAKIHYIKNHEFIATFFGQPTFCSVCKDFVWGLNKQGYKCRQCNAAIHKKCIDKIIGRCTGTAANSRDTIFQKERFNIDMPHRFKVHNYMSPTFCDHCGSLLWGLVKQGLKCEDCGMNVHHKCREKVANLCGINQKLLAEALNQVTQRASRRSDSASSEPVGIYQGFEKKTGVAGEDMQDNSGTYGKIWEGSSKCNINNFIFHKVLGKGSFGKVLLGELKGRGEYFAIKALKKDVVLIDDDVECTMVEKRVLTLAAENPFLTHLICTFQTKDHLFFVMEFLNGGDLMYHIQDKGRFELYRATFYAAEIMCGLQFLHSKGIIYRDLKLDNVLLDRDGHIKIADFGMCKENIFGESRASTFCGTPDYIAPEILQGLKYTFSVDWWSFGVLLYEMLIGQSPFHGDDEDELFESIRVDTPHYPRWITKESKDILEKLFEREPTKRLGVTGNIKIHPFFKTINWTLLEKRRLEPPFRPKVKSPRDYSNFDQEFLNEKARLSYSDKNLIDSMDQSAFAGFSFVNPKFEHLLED
Sequence of ABL1(F317L)-phosphorylated (P00519 whole entry F317L): as the sequence (P00519 whole entry F317I) above, with I317L counted along it

Question: For Cc1cn(-c2cc(NC(=O)c3ccc4c(c3)CN(c3cncnc3)C[C@@H]4C)cc(C(F)(F)F)c2)cn1 [Compound 6j], which remaining activity at 1 µM (EPHB2) is on record?
Answer: The remaining activity at 1 µM was 85%.

Question: And the remaining activity at 1 µM [1]?
Answer: Its remaining activity at 1 µM is 74%.

Question: What about the remaining activity at 1 µM (EIF2AK1) of the same compound?
Answer: The remaining activity at 1 µM was 92%.

Question: And the remaining activity at 1 µM (EGFR(E746-A750del))?
Answer: The remaining activity at 1 µM was 94%.

Question: What about the remaining activity at 1 µM (ANKK1) of the same compound?
Answer: Its remaining activity at 1 µM is 63%.

Question: What about the remaining activity at 1 µM (ROCK2) of the same compound?
Answer: The remaining activity at 1 µM was 96%.

Question: What about the remaining activity at 1 µM (MAP4K3) of the same compound?
Answer: Its remaining activity at 1 µM is 96%.

Question: And the remaining activity at 1 µM (PKN2)?
Answer: Its remaining activity at 1 µM is 95%.

Question: And the remaining activity at 1 µM (PRKCD)?
Answer: The remaining activity at 1 µM was 94%.

Question: And the remaining activity at 1 µM (MET(M1250T))?
Answer: Its remaining activity at 1 µM is 84%.

Question: What about the remaining activity at 1 µM [2] of the same compound?
Answer: Its remaining activity at 1 µM is 80%.

Question: What about the remaining activity at 1 µM (TESK1) of the same compound?
Answer: Its remaining activity at 1 µM is 98%.

Question: What about the remaining activity at 1 µM (IKK-beta) of the same compound?
Answer: The remaining activity at 1 µM was 100%.

Question: And the remaining activity at 1 µM (PIM2)?
Answer: Its remaining activity at 1 µM is 97%.

Question: And the remaining activity at 1 µM (S6K1)?
Answer: Its remaining activity at 1 µM is 100%.

Question: What about the remaining activity at 1 µM (PAK2) of the same compound?
Answer: The remaining activity at 1 µM was 85%.

Question: And the remaining activity at 1 µM (CLK3)?
Answer: The remaining activity at 1 µM was 95%.

Question: What about the remaining activity at 1 µM (FLT3(D835V)) of the same compound?
Answer: The remaining activity at 1 µM was 48%.

Question: And the remaining activity at 1 µM (SRPK3)?
Answer: The remaining activity at 1 µM was 93%.

Question: What about the remaining activity at 1 µM (FLT3(ITD,F691L)) of the same compound?
Answer: Its remaining activity at 1 µM is 100%.

Question: And the remaining activity at 1 µM (EPHA4)?
Answer: The remaining activity at 1 µM was 77%.

Question: What about the remaining activity at 1 µM (DCAMKL3) of the same compound?
Answer: The remaining activity at 1 µM was 86%.

Question: What about the remaining activity at 1 µM (PDPK1) of the same compound?
Answer: Its remaining activity at 1 µM is 84%.

Question: What about the remaining activity at 1 µM (FYN) of the same compound?
Answer: Its remaining activity at 1 µM is 69%.

Question: What about the remaining activity at 1 µM (PAK6) of the same compound?
Answer: The remaining activity at 1 µM was 85%.

Question: What about the remaining activity at 1 µM (MARK1) of the same compound?
Answer: The remaining activity at 1 µM was 74%.

Question: What about the remaining activity at 1 µM (EGFR(S752-I759del)) of the same compound?
Answer: The remaining activity at 1 µM was 82%.

Question: What about the remaining activity at 1 µM (MEK5) of the same compound?
Answer: The remaining activity at 1 µM was 100%.

Question: What about the remaining activity at 1 µM (ERK3) of the same compound?
Answer: Its remaining activity at 1 µM is 96%.

Question: What about the remaining activity at 1 µM (CDC2L5) of the same compound?
Answer: Its remaining activity at 1 µM is 100%.

Question: And the remaining activity at 1 µM (CSNK1E)?
Answer: The remaining activity at 1 µM was 86%.

Question: What about the remaining activity at 1 µM (FLT3(D835H)) of the same compound?
Answer: The remaining activity at 1 µM was 59%.

Question: What about the remaining binding at 1 µM (PFPK5(P.falciparum)) of the same compound?
Answer: The remaining binding at 1 µM was 100%.

Question: What about the clearance [3] of the same compound?
Answer: The clearance was 17.6 L/h/kg.

— publication PMC5053573, “Structure-Based Design of Tetrahydroisoquinoline-7-carboxamides as Selective Discoidin Domain Receptor 1 (DDR1) Inhibitors” (Journal of Medicinal Chemistry, 2016)
